Tests used:
[1] = tested on: apoptosis of nerve cells and oligodendrocytes; experiment: TUNEL staining of apoptosis at spinal cord injury site; type: in vivo, rat; settings: tail vein injection
Protocol: (§1) For the present experiment, male white mice (Sprague-Dawley 240-250 g, 7 weeks, 10 mice) were under general anesthetics by an intraperitoneal injection of Ketamin (80 mg/kg, Yuhan Corporation) and Rompun (7.4 mg/kg, Bayer Korea Corporation). Laminectomy was performed at spine T9-10 level to expose a spinal cord keeping intact dura. And then, rat was put on Spinal cord dropping device (NYU); spine processes at T8 and T11 sites were fixed by using a clamp, respectively; then, a rod (diameter 2 mm, weight 10 g) was dropped from 25 mm height vertical to dorsal part of spinal cord followed by suturing injury site muscle and skin. The rat of Sham-operated control group was performed only laminectomy at same area without damaging spinal cord injury (marked by ‘sham” in figures; hereinafter, the same as above).
Substance P (marked by ‘SP’ in figures; hereinafter, the same as above) dissolved in saline of 5 nmol/kg concentration was injected through tail vein at immediately, 24 hours, and 48 hours after a spinal cord injury for experimental groups. At sham control group, same volume of saline (marked by ‘vehicle’ in figures; hereinafter, the same as above) without Substance P was injected at same time points. Operation were performed on an electric heating pad of 37° C., and then rat were transferred to cage after awake from the anesthetic. • (2) Preparation of Tissue […]

caspase-3 = experiment: Western blot of cleaved caspase-3 in spinal cord tissue; type: in vivo, rat; settings: tail vein injection, one day and five days after injury
Protocol: as §1, with “above). […]” for “above).”
(2) Substance P or saline (the same volume without Substance P) was injected to a tail vein of mice, respectively at immediately, 1 d, 2 ds after a spinal cord injury, using the same method as (1) of Example 1. […] The amounts of proteins in supernatant were determined by using BCA assay (Pierce). […] At this time, β-Tubulin was used as an inner comparing group, and each result were determined by performing four independent experiments.

In the case of Substance P, the apoptosis of oligodendrocytes ([1]; five days after damaging) is reported as “significantly decreased”, the “apoptosis of nerve cells” value ([1]; one day after damaging) is reported as “decreased” and the “activation of caspase-3” value (caspase-3) is reported as “significantly decreased”.

Source: patent US9078851B2, “Composition for preventing or treating a spinal cord injury” (UNIVERSITY-INDUSTRY COOPERATION GROUP OF KYUNG HEE, priority 2009, dated 2015)
